Reference: PubChem BioAssay (NCI)
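All cell lines were grown in 96-well plates and treated with compound for 48 hours. GI50 marks 50% less growth. TGI: concentration producing complete growth inhibition.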

Tests used:
Assay in all cases: NCI anticancer screen, dose series, 48 h
[1] = test system: 786-0 renal
[2] = test system: A498 renal
[3] = test system: A549 NSCLC
[4] = test system: ACHN renal
[5] = test system: BT-549 breast
[6] = test system: CAKI-1 renal
[7] = test system: CCRF-CEM leukemia
[8] = test system: COLO 205 colon
[9] = test system: DU-145 prostate
[10] = test system: EKVX NSCLC
[11] = test system: HCC-2998 colon
[12] = test system: HCT-116 colon
[13] = test system: HCT-15 colon
[14] = test system: HL-60(TB) leukemia
[15] = test system: HOP-62 NSCLC
[16] = test system: HOP-92 NSCLC
[17] = test system: HS 578T breast
[18] = test system: HT29 colon
[19] = test system: IGROV1 ovarian
[20] = test system: K-562 leukemia
[21] = test system: KM12 colon
[22] = test system: M14 melanoma
[23] = test system: MALME-3M melanoma
[24] = test system: MCF7 breast
[25] = test system: MDA-MB-231 breast
[26] = test system: MDA-MB-435
[27] = test system: MDA-N
[28] = test system: MOLT-4 leukemia
[29] = test system: NCI-H226 lung
[30] = test system: NCI-H23 lung
[31] = test system: NCI-H460 lung
[32] = test system: NCI/ADR-RES ovarian
[33] = test system: OVCAR-3 ovarian
[34] = test system: OVCAR-4 ovarian
[35] = test system: OVCAR-5 ovarian
[36] = test system: OVCAR-8 ovarian
[37] = test system: PC-3 prostate
[38] = test system: RPMI-8226 leukemia
[39] = test system: RXF 393 renal
[40] = test system: SF-268 CNS
[41] = test system: SF-295 CNS
[42] = test system: SF-539 CNS
[43] = test system: SK-MEL-28 melanoma
[44] = test system: SK-MEL-5 melanoma
[45] = test system: SN12C renal
[46] = test system: SNB-19 CNS
[47] = test system: SR leukemia
[48] = test system: SW-620 colon
[49] = test system: T-47D breast
[50] = test system: TK-10 renal
[51] = test system: U251 CNS
[52] = test system: UACC-257 melanoma
[53] = test system: UACC-62 melanoma
[54] = test system: UO-31 renal
[55] = test system: LOX IMVI melanoma
[56] = test system: SK-MEL-2 melanoma
[57] = test system: SK-OV-3 ovarian
[58] = test system: SNB-75 CNS

With `O=[N+]([O-])C1CC/C(=N/O)c2nonc21` (centres undefined) the TGI [1] was over 10 µM, the TGI [2] was over 10 µM and the TGI [3] was over 10 µM. The TGI [4] was over 10 µM, the TGI [5] was over 10 µM and the TGI [6] was over 10 µM. The TGI [7] was over 10 µM, the TGI [8] was over 10 µM and the TGI [9] was over 10 µM. It also gave a TGI [10] of over 10 µM, a TGI [11] of over 10 µM and a TGI [12] of over 10 µM. For the same compound, the TGI [13] was over 10 µM, the TGI [14] was over 10 µM and the TGI [15] was over 10 µM. For the same compound, the TGI [16] was over 10 µM, the TGI [17] was over 10 µM and the TGI [18] was over 10 µM. The TGI [19] was over 10 µM, the TGI [20] was over 10 µM and the TGI [21] was over 10 µM. For the same compound, the TGI [22] was over 10 µM, the TGI [23] was over 10 µM and the TGI [24] was over 10 µM. It also gave a TGI [25] of over 10 µM, a TGI [26] of over 10 µM and a TGI [27] of over 10 µM. It also gave a TGI [28] of over 10 µM, a TGI [29] of over 10 µM and a TGI [30] of over 10 µM. For the same compound, the TGI [31] was over 10 µM, the TGI [32] was over 10 µM and the TGI [33] was over 10 µM. The TGI [34] was over 10 µM, the TGI [35] was over 10 µM and the TGI [36] was over 10 µM. For the same compound, the TGI [37] was over 10 µM, the TGI [38] was over 10 µM and the TGI [39] was over 10 µM. For the same compound, the TGI [40] was over 10 µM, the TGI [41] was over 10 µM and the TGI [42] was over 10 µM. The TGI [43] was over 10 µM, the TGI [44] was over 10 µM and the TGI [45] was over 10 µM. It also gave a TGI [46] of over 10 µM, a TGI [47] of over 10 µM and a TGI [48] of over 10 µM. For the same compound, the TGI [49] was over 10 µM, the TGI [50] was over 10 µM and the TGI [51] was over 10 µM. For the same compound, the TGI [52] was over 10 µM, the TGI [53] was over 10 µM and the TGI [54] was over 10 µM.
`[Cl][Hg][Cl]` gave a GI50 [1] of 12.6 µM, a TGI [1] of 25.1 µM and a GI50 [2] of 20.4 µM. It also gave a TGI [2] of 34.7 µM, a GI50 [3] of 20.2 µM and a TGI [3] of 39.3 µM. It also gave a GI50 [4] of 18 µM, a TGI [4] of 32 µM and a GI50 [5] of 20.3 µM. It also gave a TGI [5] of 34.8 µM, a GI50 [6] of 13.7 µM and a TGI [6] of 18.1 µM. The GI50 [7] was 1.83 µM, the TGI [7] was 7.38 µM and the GI50 [8] was 10.3 µM. It also gave a TGI [8] of 24.6 µM, a GI50 [9] of 20.1 µM and a TGI [9] of 34.8 µM. It also gave a GI50 [10] of 19.9 µM, a TGI [10] of 34.6 µM and a GI50 [11] of 17.5 µM. It also gave a TGI [11] of 31.7 µM, a GI50 [12] of 18 µM and a TGI [12] of 33.4 µM. The GI50 [13] was 15.8 µM, the TGI [13] was 30.1 µM and the GI50 [14] was 3.24 µM. For the same compound, the TGI [14] was 10.1 µM, the GI50 [15] was 16.7 µM and the TGI [15] was 31.3 µM. For the same compound, the GI50 [16] was 17.3 µM, the TGI [16] was 32.7 µM and the GI50 [17] was 22.8 µM. The TGI [17] was 57.4 µM, the GI50 [18] was 16.1 µM and the TGI [18] was 36.3 µM. For the same compound, the GI50 [19] was 8.2 µM, the TGI [19] was 24.8 µM and the GI50 [20] was 0.302 µM. It also gave a TGI [20] of 4.33 µM, a GI50 [21] of 16.8 µM and a TGI [21] of 31.6 µM. The GI50 [55] was 1.72 µM, the TGI [55] was 16 µM and the GI50 [22] was 16.2 µM. It also gave a TGI [22] of 32.2 µM, a GI50 [23] of 9.16 µM and a TGI [23] of 22.1 µM. For the same compound, the GI50 [24] was 12.5 µM, the TGI [24] was over 56 µM and the GI50 [25] was 17.1 µM. For the same compound, the TGI [25] was 31.7 µM, the GI50 [26] was 15.7 µM and the TGI [26] was 30.2 µM. The GI50 [27] was 15.5 µM, the TGI [27] was 28.9 µM and the GI50 [28] was 4.08 µM. It also gave a TGI [28] of over 37.7 µM, a GI50 [29] of 25.1 µM and a TGI [29] of 47.7 µM. The GI50 [30] was 17.2 µM, the TGI [30] was 40.5 µM and the GI50 [31] was 15.7 µM. It also gave a TGI [31] of 35.5 µM, a GI50 [32] of 28.5 µM and a TGI [32] of 79.6 µM. For the same compound, the GI50 [33] was 15.9 µM, the TGI [33] was 32.1 µM and the GI50 [34] was 16.9 µM. The TGI [34] was 35 µM, the GI50 [35] was 19.3 µM and the TGI [35] was 33.6 µM. It also gave a GI50 [36] of 21.6 µM, a TGI [36] of 56.3 µM and a GI50 [37] of 17.3 µM. The TGI [37] was 32 µM, the GI50 [38] was 20 µM and the TGI [38] was over 60.3 µM. For the same compound, the GI50 [39] was 18.2 µM, the TGI [39] was 32.6 µM and the GI50 [40] was 18.1 µM. The TGI [40] was 46.9 µM, the GI50 [41] was 16.7 µM and the TGI [41] was 31.9 µM. For the same compound, the GI50 [42] was 18.3 µM, the TGI [42] was 33.5 µM and the GI50 [56] was 16.2 µM. It also gave a TGI [56] of 34.5 µM, a GI50 [43] of 15.3 µM and a TGI [43] of 29.8 µM. For the same compound, the GI50 [44] was 15.4 µM, the TGI [44] was 30.5 µM and the GI50 [57] was 20.2 µM. The TGI [57] was 34.5 µM, the GI50 [45] was 16.1 µM and the TGI [45] was 29.6 µM. For the same compound, the GI50 [46] was 17.9 µM, the TGI [46] was 32 µM and the GI50 [58] was 18 µM. For the same compound, the TGI [58] was 34.8 µM, the GI50 [47] was 1.72 µM and the GI50 [48] was 5.4 µM. The TGI [48] was 40.2 µM, the GI50 [49] was 5.18 µM and the TGI [49] was 30.2 µM. The GI50 [50] was 17.5 µM, the TGI [50] was 31.5 µM and the GI50 [51] was 6.25 µM. For the same compound, the TGI [51] was 19.8 µM, the GI50 [52] was 17.7 µM and the TGI [52] was 34.9 µM. The GI50 [53] was 13.2 µM, the TGI [53] was 27.3 µM and the GI50 [54] was 22.7 µM. For the same compound, the TGI [54] was 37.2 µM.
